Data as given in patent US20200333324A1, “METHOD OF PREDICTING CLINICAL OUTCOME OF ANTICANCER AGENTS” (MITRA RXDX, INC., priority 2017, published 2020).

What was measured:
Type in all cases: cell-based, human
HNSCC tumor tissue [1] = assay: FACS analysis for CD3 and CD8 (CD8+ T cell infiltration) in tumor microenvironment platform; conditions: vs IgG control
Description: The effect of Pembrolizumab and Nivolumab on CD8^+ T cell tumor infiltration was then evaluated. Tumor sections from the same patient cultured for 72 hours in the tumor microenvironment platform were treated with Pembrolizumab, Nivolumab, or IgG as control and stained for H&E, Ki67, Caspase 3, and CD8 at day 3 in culture (T3). Baseline staining was determined at TO. […] To further elucidate the effects of the anti-PD-1 antibodies, FACS analysis was performed on tumor tissue from patient 2941 and patient 2942 treated with either Pembrolizumab, Nivolumab, or IgG control. […] By contrast, there was no effect of either Pembrolizumab or Nivolumab on CD8^+ T cell infiltration for patient 2942, further highlighting the differential response between individuals to PD-1 blockade. CD8^+ T cell infiltration was evaluated in the tumor microenvironment platform with tumor tissue from the same patient, and comparisons for control vs Nivo, control vs Pembro, Nivo vs Pembro, and control vs Nivo vs Pembro for multiple patients are shown in FIG. 6 (each line represents results from the tumor microenvironment platform cultured with tumor tissue from a single individual).

PBNCs [2] = assay: FACS of CD3+/CD45+ lymphocytes for PD-1, CEACAM, LAG3, TIM3, OX40, ILDR2, 4-1-BB, GITR, PBNCs
Description: (§1) To further probe the phenotypic modulation mediated by treatment with Nivolumab, tumor sections or PBNCs from the same patient cultured for 3 days (72 hours) in the tumor microenvironment platform were treated with Nivolumab or IgG control for one day, followed by flow cytometry gating for lymphocytes based on their forward and side scatter properties. Lymphocytes were further gated for expression of both CD3 and CD45, and this population of cells was analyzed by FACS for expression of PD-1, CEACAM, LAG3, TIM3, OX40, ILDR2, 4-1-BB, and GITR.

HNSCC tumor tissue [3] = assay: M-score clinical outcome predictor: tumor microenvironment platform assays (WST-1, LDH, ATP, glucose uptake, Caspase 3/8, Ki67, H&E) input into machine-trained algorithm; design: scale not given here
PBNCs [4] = assay: FACS analysis for CD25, CD127 and FOXP3 expression, PBNCs
Description: (§2) The effect of treatment with Nivolumab and Pembrolizumab on CD25, CD127, and FOXP3 expression was then evaluated. Tumor sections or PBNCs from the same patient cultured for 3 days in the tumor microenvironment platform were treated with Pembrolizumab, Nivolumab, or IgG control for one day followed by FACS analysis for expression of CD25, CD127, and FOXP3.

Tumor sections [5] = assay: FACS of CD3+/CD45+ lymphocytes for PD-1, CEACAM, LAG3, TIM3, OX40, ILDR2, 4-1-BB, GITR, tumor sections
Description: as §1

HNSCC tumor tissue [6] = assay: H&E staining and IHC for Ki67 and Caspase 3 in tumor microenvironment platform; conditions: patient 2941
Description: The effects of Pembrolizumab and Nivolumab on proliferation in the tumor microenvironment platform were then evaluated. Tumor sections from the same patient cultured for 72 hours in the tumor microenvironment platform (performed in at least biological triplicate) were treated with Pembrolizumab, Nivolumab, or IgG as control. Tissue was subsequently formalin fixed and paraffin embedded, and processed for H&E staining and immuno histochemical staining (IHC) with Ki67 and Caspase 3 at day 3 in culture (T3). Baseline staining was determined at TO.
The effect of Pembrolizumab and Nivolumab on CD8^+ T cell tumor infiltration was then evaluated. Tumor sections from the same patient cultured for 72 hours in the tumor microenvironment platform were treated with Pembrolizumab, Nivolumab, or IgG as control and stained for H&E, Ki67, Caspase 3, and CD8 at day 3 in culture (T3). Baseline staining was determined at TO. […] CD8^+ T cell infiltration was evaluated in the tumor microenvironment platform with tumor tissue from the same patient, and comparisons for control vs Nivo, control vs Pembro, Nivo vs Pembro, and control vs Nivo vs Pembro for multiple patients are shown in FIG. 6 (each line represents results from the tumor microenvironment platform cultured with tumor tissue from a single individual).

CRC tumor tissue = assay: Granzyme B and Perforin secretion assays, CRC tumor sections in tumor microenvironment platform; conditions: 48 hours
Description: FIGS. 10A and 10B show quantification of results for Granzyme B and Perforin secretion assays for CRC tumor tissue cultured in the tumor microenvironment platform treated with Ipilimumab, Nivolumab, Ipilimumab+Nivolumab, FOLFIRI, or IgG control for 24 or 48 hours.
In another experiment, CRC tumor sections from the same patient cultured for 24 or 48 hours in the tumor microenvironment platform with Ipilimumab, Nivolumab, Ipilimumab+Nivolumab, FOLFIRI, or IgG as control were assayed for Granzyme B and Perforin secretion. Results are shown in FIG. 10A for the tumor microenvironment platform with tumor tissue from a predicted responder and FIG. 10B for the tumor microenvironment platform with tumor tissue from a predicted non-responder. After treatment with Nivolumab for 48 hours, there was an increase in Granzyme B secretion in the tumor microenvironment platform with tissue from the predicted responder compared to treatment with Ipilimumab or the control IgG. By contrast, at 48 hours in the tumor microenvironment platform with tissue from the predicted non-responder there was no increase in Granzyme B or Perforin secretion for treatment with Nivolumab.

Tumor sections [7] = assay: FACS analysis for CD25, CD127 and FOXP3 expression, tumor sections
Description: as §2

[8] = platform containing tumor tissue, vs IgG control

## Nivolumab
HNSCC tumor tissue [1]; patient 2941
  CD8^+ T cell infiltration (FACS): increase
HNSCC tumor tissue [1]; patient 2942
  CD8^+ T cell infiltration (FACS): no effect
PBNCs [2]; CD3+/CD45+ lymphocytes, treated one day, control 0.12
  CEACAM PBMCs (% total cells): 2.74 % total cells
PBNCs [2]; CD3+/CD45+ lymphocytes, treated one day, control 0.14
  LAG3 PBMCs (% total cells): 0.031 % total cells
PBNCs [2]; CD3+/CD45+ lymphocytes, treated one day, control 0.25
  OX40 PBMCs (% total cells): 0 % total cells
PBNCs [2]; CD3+/CD45+ lymphocytes, treated one day, control 0.27
  4-1-BB PBMCs (% total cells): 0.38 % total cells
PBNCs [2]; CD3+/CD45+ lymphocytes, treated one day, control 0.30
  GITR PBMCs (% total cells): 0.50 % total cells
PBNCs [2]; CD3+/CD45+ lymphocytes, treated one day, control 1.96
  ILDR2 PBMCs (% total cells): 2.67 % total cells
PBNCs [2]; CD3+/CD45+ lymphocytes, treated one day, control 2.94
  PD-1 PBMCs (% total cells): 0.31 % total cells
PBNCs [2]; CD3+/CD45+ lymphocytes, treated one day, control 7.91
  TIM3 PBMCs (% total cells): 13.9 % total cells
PBNCs [2]; platform containing only PBNCs, vs IgG control
  ILDR2^+/CD3^+/CD45^+ and GITR^+/CD3^+/CD45^+ cell populations: No significant change
HNSCC tumor tissue [3]; Patient ID 2916
  M-score: 13
HNSCC tumor tissue [3]; Patient ID 2926
  M-score: 31
HNSCC tumor tissue [3]; Patient ID 2939
  M-score: 5
HNSCC tumor tissue [3]; Patient ID 2942
  M-score: 28
HNSCC tumor tissue [3]; Patient ID 2950
  M-score: 16
HNSCC tumor tissue [3]; Patient ID 2963
  M-score: 5
HNSCC tumor tissue [3]; Patient ID 2979
  M-score: 9
HNSCC tumor tissue [3]; Patient ID 2980
  M-score: 12
PBNCs [4]; Non-Responder, control 3.67
  CD25^+/FOXP3^− PBMCs (% total cells): 1.40 % total cells
PBNCs [4]; Non-Responder, control 14.6
  CD25^+/CD127^+ PBMCs (% total cells): 25.1 % total cells
PBNCs [4]; Non-Responder, control 15.1
  CD25^+/CD127^− PBMCs (% total cells): 8.22 % total cells
PBNCs [4]; Non-Responder, control 18.2
  CD25^−/FOXP3^− PBMCs (% total cells): 7.90 % total cells
PBNCs [4]; Non-Responder, control 22.1
  CD25^+/FOXP3^+ PBMCs (% total cells): 29.0 % total cells
PBNCs [4]; Non-Responder, control 26.2
  CD25^−/CD127^+ PBMCs (% total cells): 44.4 % total cells
PBNCs [4]; Non-Responder, control 44.1
  CD25^−/CD127^− PBMCs (% total cells): 22.3 % total cells
PBNCs [4]; Non-Responder, control 56.0
  CD25^− FOXP3^+ PBMCs (% total cells): 61.7 % total cells
PBNCs [4]; Responder, control 3.04
  CD25^+/FOXP3^− PBMCs (% total cells): 8.91 % total cells
PBNCs [4]; Responder, control 11.7
  CD25^+/CD127^− PBMCs (% total cells): 6.53 % total cells
PBNCs [4]; Responder, control 16.8
  CD25^+/CD127^+ PBMCs (% total cells): 30.4 % total cells
PBNCs [4]; Responder, control 21.7
  CD25^+/FOXP3^+ PBMCs (% total cells): 24.0 % total cells
PBNCs [4]; Responder, control 23.2
  CD25^−/FOXP3^− PBMCs (% total cells): 29.8 % total cells
PBNCs [4]; Responder, control 24.8
  CD25^−/CD127^+ PBMCs (% total cells): 44.2 % total cells
PBNCs [4]; Responder, control 46.6
  CD25^−/CD127^− PBMCs (% total cells): 18.9 % total cells
PBNCs [4]; Responder, control 52.1
  CD25^− FOXP3^+ PBMCs (% total cells): 37.3 % total cells
Tumor sections [5]; CD3+/CD45+ lymphocytes, treated one day, control 1.70
  OX40 Tumor (% total cells): 0 % total cells
Tumor sections [5]; CD3+/CD45+ lymphocytes, treated one day, control 2.04
  CEACAM Tumor (% total cells): 3.69 % total cells
Tumor sections [5]; CD3+/CD45+ lymphocytes, treated one day, control 2.22
  LAG3 Tumor (% total cells): 0.52 % total cells
Tumor sections [5]; CD3+/CD45+ lymphocytes, treated one day, control 2.60
  GITR Tumor (% total cells): 13.0 % total cells
Tumor sections [5]; CD3+/CD45+ lymphocytes, treated one day, control 4.69
  4-1-BB Tumor (% total cells): 7.56 % total cells
Tumor sections [5]; CD3+/CD45+ lymphocytes, treated one day, control 17.8
  TIM3 Tumor (% total cells): 19.9 % total cells
Tumor sections [5]; CD3+/CD45+ lymphocytes, treated one day, control 19.4
  PD-1 Tumor (% total cells): 20.5 % total cells
Tumor sections [5]; CD3+/CD45+ lymphocytes, treated one day, control 24.4
  ILDR2 Tumor (% total cells): 17.1 % total cells
Tumor sections [5]; [8]
  number of GITR^+/CD3^+/CD45^+ lymphocytes: increase
  number of ILDR2^+/CD3^+/CD45^+ lymphocytes: decrease
HNSCC tumor tissue [6]; 72 hours, vs IgG control
  proliferation (Ki67 IHC): diminished proliferation
HNSCC tumor tissue [6]; T3, associated with increased CD8^+ T cell infiltration
  Caspase 3 activity (IHC): increased Caspase 3 activity
CRC tumor tissue; predicted non-responder
  Granzyme B secretion: no increase
  Perforin secretion: no increase
CRC tumor tissue; predicted responder, compared to Ipilimumab or control IgG
  Granzyme B secretion: increase
Tumor sections [7]; Non-Responder, control 6.52
  CD25^+/FOXP3^− Tumor (% total cells): 6.45 % total cells
Tumor sections [7]; Non-Responder, control 19.6
  CD25^+/CD127^+ Tumor (% total cells): 16.1 % total cells
Tumor sections [7]; Non-Responder, control 22.1
  CD25^−/CD127^− Tumor (% total cells): 21.7 % total cells
Tumor sections [7]; Non-Responder, control 23.6
  CD25^−/FOXP3^− Tumor (% total cells): 17.5 % total cells
Tumor sections [7]; Non-Responder, control 25.4
  CD25^+/CD127^− Tumor (% total cells): 22.1 % total cells
Tumor sections [7]; Non-Responder, control 33.0
  CD25^−/CD127^+ Tumor (% total cells): 40.1 % total cells
Tumor sections [7]; Non-Responder, control 34.4
  CD25^+/FOXP3^+ Tumor (% total cells): 29.5 % total cells
Tumor sections [7]; Non-Responder, control 35.5
  CD25^− FOXP3^+ Tumor (% total cells): 46.5 % total cells
Tumor sections [7]; Responder, control 12.2
  CD25^−/CD127^− Tumor (% total cells): 15.6 % total cells
Tumor sections [7]; Responder, control 18.9
  CD25^− FOXP3^+ Tumor (% total cells): 45.7 % total cells
Tumor sections [7]; Responder, control 20.3
  CD25^−/FOXP3^− Tumor (% total cells): 4.62 % total cells
Tumor sections [7]; Responder, control 23.0
  CD25^+/CD127^− Tumor (% total cells): 25.4 % total cells
Tumor sections [7]; Responder, control 24.3
  CD25^−/CD127^+ Tumor (% total cells): 31.8 % total cells
Tumor sections [7]; Responder, control 25.7
  CD25^+/FOXP3^− Tumor (% total cells): 5.20 % total cells
Tumor sections [7]; Responder, control 35.1
  CD25^+/FOXP3^+ Tumor (% total cells): 44.5 % total cells
Tumor sections [7]; Responder, control 40.5
  CD25^+/CD127^+ Tumor (% total cells): 27.2 % total cells
Tumor sections [7]; platform containing tumor tissue
  functional Treg cells (CD25, CD127, FOXP3 FACS): patient sample-dependent functional Treg cell depression
